According to patent US20140005163A1 (NOVARTIS AG, priority 2010, published 2014):
≈ marks a conversion by molar mass, not a printed value. Where two headings read alike, the source gives them in different places.

Tests used:
[1] = target: T1, mTOR (Homo sapiens, UniProt P42345); assay: Biochemical assay for m-TOR by TR-FRET; details: 8 μM ATP, 400 nM GFP-4EBP1, 0.5 nM mTOR
T1 construct: purchased Invitrogen Corporation (Carlsbad/CA, USA) PV4753
How it was run: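 Steps: ATP (8 μM final) plus GFP-4EBP1 (400 nM final) combined with mTOR (0.5 nM final), incubated at rt; buffer HEPES pH 7.5 with 10 mM MnCl2, NaCl, EGTA, DTT. Then stopped with EDTA/Tb3+-anti-p4EBP1 pT46 Ab (0.5 nM). Plates read after 15 min.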

[2] = system: PKB Ser473 phosphorylation in Rat1-myr-HA-p110 beta cells; assay: Reverse protein array assay, PKB Ser473 phosphorylation in Rat1-myr-p110 beta cells; format: cell-based; details: 0.5 h, pAkt Ser473, 30 minutes incubation, read-out: p-PKB IC50
How it was run: (§1)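 Measured: PKB Ser473 phosphorylation by reverse protein array in Rat1 cells expressing myr-HA-p110 alpha, beta or delta, after 30 min compound treatment at 37 °C with 0.2% DMSO vehicle.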

[3] = system: PKB Ser473 phosphorylation in Rat1-myr-HA-p110 alpha cells; assay: Reverse protein array assay, PKB Ser473 phosphorylation in Rat1-myr-p110 alpha cells; format: cell-based; details: 0.5 h, pAkt Ser473, 30 minutes compound incubation, read-out: p-PKB IC50
How it was run: as §1

[4] = system: S6 Ribosomal Protein phosphorylation Ser235/236 in TSC1 null mouse embryo fibroblast (MEF) cells; assay: Reverse protein array assay, S6 Ribosomal Protein phosphorylation Ser235/236 in TSC1 null MEF cells; format: cell-based; details: 1 h, pS6 ribosomal protein Ser235/236, 60 minutes incubation, read-out: p-S6 IC50
How it was run: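 TSC1−/− MEFs, seeded and held ≥20 h at 37 °C/5% CO2, were exposed to 8-step serial compound dilutions (0.02% DMSO final; DMSO vehicle control) for 60 min at 37 °C. Cells were then lysed on ice for 10 min and lysates spotted onto reverse protein array chips.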

[5] = Solubility at pH 6.8; format: physicochemical
How it was run: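 Solubility was measured at pH 6.8 following the cited Zhou et al. (2007) procedure.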

[6] = system: PKB Ser473 phosphorylation in Rat1-myr-HA-p110 delta cells; assay: Reverse protein array assay, PKB Ser473 phosphorylation in Rat1-myr-p110 delta cells; format: cell-based; details: read-out: p-PKB IC50
How it was run: as §1

[7] = pH 6.8, aqueous buffer, thermodynamic from solid, read-out: solubility

T1 sequence (P42345 1360-2549 limits assumed): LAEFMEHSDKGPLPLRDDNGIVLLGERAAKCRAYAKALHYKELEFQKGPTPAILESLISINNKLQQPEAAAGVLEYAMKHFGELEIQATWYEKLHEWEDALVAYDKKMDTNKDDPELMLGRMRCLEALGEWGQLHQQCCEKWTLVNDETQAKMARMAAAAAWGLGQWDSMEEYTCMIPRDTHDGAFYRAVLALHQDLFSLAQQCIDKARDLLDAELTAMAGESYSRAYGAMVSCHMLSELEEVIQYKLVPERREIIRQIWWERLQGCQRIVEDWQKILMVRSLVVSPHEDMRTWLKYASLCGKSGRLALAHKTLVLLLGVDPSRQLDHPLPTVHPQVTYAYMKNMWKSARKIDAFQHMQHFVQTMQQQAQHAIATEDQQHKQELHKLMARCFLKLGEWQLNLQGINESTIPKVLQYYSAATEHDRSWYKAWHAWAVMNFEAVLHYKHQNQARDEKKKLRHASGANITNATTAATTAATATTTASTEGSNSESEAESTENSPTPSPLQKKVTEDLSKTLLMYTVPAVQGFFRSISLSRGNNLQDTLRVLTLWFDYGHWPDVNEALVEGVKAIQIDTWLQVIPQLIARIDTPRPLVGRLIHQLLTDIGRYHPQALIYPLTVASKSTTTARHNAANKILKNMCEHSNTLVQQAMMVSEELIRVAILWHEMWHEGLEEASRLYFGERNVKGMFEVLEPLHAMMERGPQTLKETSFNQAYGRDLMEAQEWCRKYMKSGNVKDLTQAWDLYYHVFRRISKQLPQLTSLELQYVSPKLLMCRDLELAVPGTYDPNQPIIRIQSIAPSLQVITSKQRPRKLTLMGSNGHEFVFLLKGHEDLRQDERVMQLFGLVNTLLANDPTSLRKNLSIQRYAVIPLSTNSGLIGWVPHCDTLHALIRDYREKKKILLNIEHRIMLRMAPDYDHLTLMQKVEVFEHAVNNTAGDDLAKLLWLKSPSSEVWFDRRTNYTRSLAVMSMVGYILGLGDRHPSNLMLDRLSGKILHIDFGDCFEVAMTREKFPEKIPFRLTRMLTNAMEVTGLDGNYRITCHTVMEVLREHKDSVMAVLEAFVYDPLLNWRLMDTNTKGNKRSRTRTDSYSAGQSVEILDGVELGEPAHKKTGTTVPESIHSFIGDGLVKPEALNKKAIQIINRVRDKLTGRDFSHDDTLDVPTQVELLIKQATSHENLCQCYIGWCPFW

Row | Structure (SMILES) | IC50 [1] [nM] | IC50 [2] [nM] | IC50 [3] [nM] | solubility [5, 7] [µg/mL] | IC50 [6] [nM] | solubility ([5]; pH 6.8) [µg/mL] | IC50 [4] [nM]
1 | CCn1cc(-n2c(=O)n(C)c3cnc4ccc(-c5cnc(COC)c(OC)c5)cc4c32)c(C)n1 [Example 195.3, 1-(1-Ethyl-3-methyl-1H-pyrazol-4-yl)-8-(5-methoxy-6-methoxymethyl-pyridin-3-yl)-3-methyl-1,3-dihydro-imidazo[4,5-c]quinolin-2-one] | 76 | 184 | 92 | > 459 | 255 |  | 31
2 | Cc1ncc(-c2ccc3ncc4c(c3c2)n(-c2cn(C)nc2C)c(=O)n4C)cc1N(C)C [Example 164, 8-(5-Dimethylamino-6-methyl-pyridin-3-yl)-1-(1,3-dimethyl-1H-pyrazol-4-yl)-3-methyl-1,3-dihydro-imidazo[4,5-c]quinolin-2-one] | < 3 | < 5 | < 5 | 400 (≈ 936 µM) | 7 |  | 1
3 | CCn1cc(-n2c(=O)n(C)c3cnc4ccc(-c5cnc(N(C)C)nc5)cc4c32)c(C)n1 [Example 6.4, 8-(2-Dimethylamino-pyrimidin-5-yl)-1-(1-ethyl-3-methyl-1H-pyrazol-4-yl)-3-methyl-1,3-dihydro-imidazo[4,5-c]quinolin-2-one] | 33 | 52 | 42 | 36 (≈ 84 µM) | 62 |  | 10
4 | CCNc1cc(-c2ccc3ncc4c(c3c2)n(-c2c(C)nn(CC(=O)N(C)C)c2C)c(=O)n4C)cnc1C [Example 87.5, 2-{4-[8-(5-Ethylamino-6-methyl-pyridin-3-yl)-3-methyl-2-oxo-2,3-dihydro-imidazo[4,5-c]quinolin-1-yl]-3,5-dimethyl-pyrazol-1-yl}-N,N-dimethyl-acetamide] | 29 | 407 | 237 | > 513 | 634 |  | 180
5 | CCN(C)C(=O)Cn1cc(-n2c(=O)n(C)c3cnc4ccc(-c5ccccc5)cc4c32)c(C)n1 [Example 135, N-Ethyl-N-methyl-2-[3-methyl-4-(3-methyl-2-oxo-8-phenyl-2,3-dihydro-imidazo[4,5-c]quinolin-1-yl)-pyrazol-1-yl]-acetamide] | 140 | 118 | 26 | 164 (≈ 361 µM) | 363 |  | 6
6 | COc1ncc(-c2ccc3ncc4c(c3c2)n(-c2cn(C)nc2C)c(=O)n4C)cc1C#N [Example 132, 5-[1-(1,3-Dimethyl-1H-pyrazol-4-yl)-3-methyl-2-oxo-2,3-dihydro-1H-imidazo[4,5-c]quinolin-8-yl]-2-methoxy-nicotinonitrile] | 934 | 99 | 51 | 17 (≈ 40 µM) | 145 |  | 3
7 | CCn1cc(-n2c(=O)n(C)c3cnc4ccc(-c5ccc(OCCOC)c(OC)c5)cc4c32)c(C)n1 [Example 30.2, 1-(1-Ethyl-3-methyl-1H-pyrazol-4-yl)-8-[3-methoxy-4-(2-methoxy-ethoxy)-phenyl]-3-methyl-1,3-dihydro-imidazo[4,5-c]quinolin-2-one] | 54 | 43 | 44 | 9 (≈ 18.5 µM) | 155 |  | 41
8 | Cc1noc(C)c1-n1c(=O)n(C)c2cnc3ccc(-c4cnc(N)c(Cl)c4)cc3c21 [Example 148.4, 8-(6-Amino-5-chloro-pyridin-3-yl)-1-(3,5-dimethyl-isoxazol-4-yl)-3-methyl-1,3-dihydro-imidazo[4,5-c]quinolin-2-one] | 678 | 207 | 151 | 3 (≈ 7.13 µM) | 370 |  | 17.7
9 | COc1ncc(-c2ccc3ncc4c(c3c2)n(-c2cn(C)nc2C)c(=O)n4C)cc1C(N)=O [Example 125.2, 5-[1-(1,3-Dimethyl-1H-pyrazol-4-yl)-3-methyl-2-oxo-2,3-dihydro-1H-imidazo[4,5-c]quinolin-8-yl]-2-methoxy-nicotinamide] | 10 | 187 | 82 |  | 61 | 2 (≈ 4.51 µM) | 5

The remaining compounds from weak to strong by IC50 [1], led by results:

Row | IC50 [1] [nM] | IC50 [2] [nM] | IC50 [3] [nM] | solubility [5, 7] [µg/mL] | IC50 [6] [nM] | solubility ([5]; pH 6.8) [µg/mL] | Structure (SMILES) | IC50 [4] [nM]
10 | 213 | 135 | 98 | 3 (≈ 8.12 µM) | 219 |  | Cc1nn(C)cc1-n1c(=O)n(C)c2cnc3ccc(-c4ccccc4)cc3c21 [Example 37.1, 1-(1,3-Dimethyl-1H-pyrazol-4-yl)-3-methyl-8-phenyl-1,3-dihydro-imidazo[4,5-c]quinolin-2-one] | 30
11 | 135 | 97 | 41 | 5 (≈ 11.6 µM) | 118 |  | COc1ccc(-c2ccc3ncc4c(c3n2)n(-c2cn(C)nc2C)c(=O)n4C)cc1OC [Example 250, 8-(3,4-Dimethoxy-phenyl)-1-(1,3-dimethyl-1H-pyrazol-4-yl)-3-methyl-1,3-dihydro-1,3,5,9-tetraaza-cyclopenta[a]naphthalen-2-one] | 13
12 | 129 | 10 | 17 | > 502 | 46 |  | CCNc1cc(-c2ccc3ncc4c(c3c2)n(-c2c(C)nn(CCOC)c2C)c(=O)n4C)cnc1OC [Example 90.2, 8-(5-Ethylamino-6-methoxy-pyridin-3-yl)-1-[1-(2-methoxy-ethyl)-3,5-dimethyl-1H-pyrazol-4-yl]-3-methyl-1,3-dihydro-imidazo[4,5-c]quinolin-2-one] | 35
13 | 51 | 10 | 8 | 3 (≈ 6.68 µM) | 22 |  | Cc1nn(C)cc1-n1c(=O)n(C)c2cnc3ccc(-c4cccc5c4OC(F)(F)O5)cc3c21 [Example 35, 8-(2,2-Difluoro-benzo[1,3]dioxol-4-yl)-1-(1,3-dimethyl-1H-pyrazol-4-yl)-3-methyl-1,3-dihydro-imidazo[4,5-c]quinolin-2-one] | 2
14 | 46 | 152 | 51 | 33 (≈ 77.7 µM) | 442 |  | Cc1nn(C)cc1-n1c(=O)n(C)c2cnc3ccc(-c4ccc5c(c4)CC(=O)N5)cc3c21 [Example 49, 1-(1,3-Dimethyl-1H-pyrazol-4-yl)-3-methyl-8-(2-oxo-2,3-dihydro-1H-indol-5-yl)-1,3-dihydro-imidazo[4,5-c]quinolin-2-one] | 217
15 | 36 | 100 | 84 | 36 (≈ 68.5 µM) | 307 |  | CCN(C)C(=O)Cn1cc(-n2c(=O)n(C)c3cnc4ccc(-c5cnc(N6CCCC6)nc5)cc4c32)c(C)n1 [Example 140.1, N-Ethyl-N-methyl-2-{3-methyl-4-[3-methyl-2-oxo-8-(2-pyrrolidin-1-yl-pyrimidin-5-yl)-2,3-dihydro-imidazo[4,5-c]quinolin-1-yl]-pyrazol-1-yl}-acetamide] | 5
16 | 33 | 41 | 46 |  | 105 | 2 (≈ 4.67 µM) | COc1ccc(-c2ccc3ncc4c(c3c2)n(-c2cn(C(C)C)nc2C)c(=O)n4C)cn1 [Example 2.8, 1-(1-Isopropyl-3-methyl-1H-pyrazol-4-yl)-8-(6-methoxy-pyridin-3-yl)-3-methyl-1,3-dihydro-imidazo[4,5-c]quinolin-2-one] | 21
17 | 27 | 18 | 10 |  | 23 | 2 (≈ 4.57 µM) | Cc1nn(C)cc1-n1c(=O)n(C)c2cnc3ccc(-c4cncc(C(C)(C)C#N)c4)cc3c21 [Example 220.1, 2-{5-[1-(1,3-Dimethyl-1H-pyrazol-4-yl)-3-methyl-2-oxo-2,3-dihydro-1H-imidazo[4,5-c]quinolin-8-yl]-pyridin-3-yl}-2-methyl-propionitrile] | 1
18 | 24 | 130 | 104 | 16 (≈ 34 µM) | 132 |  | CNC(=O)c1cc(-c2ccc3ncc4c(c3c2)n(-c2cn(C(C)C)nc2C)c(=O)n4C)cnc1N [Example 224.2, 2-Amino-5-[1-(1-isopropyl-3-methyl-1H-pyrazol-4-yl)-3-methyl-2-oxo-2,3-dihydro-1H-imidazo[4,5-c]quinolin-8-yl]-N-methyl-nicotinamide] | 20
19 | 23 | 70 | 151 | 102 (≈ 255 µM) | 151 |  | Cc1nn(C)cc1-n1c(=O)n(C)c2cnc3ccc(-c4ccc(CO)nc4)cc3c21 [Example 16.2, 1-(1,3-Dimethyl-1H-pyrazol-4-yl)-8-(6-hydroxymethyl-pyridin-3-yl)-3-methyl-1,3-dihydro-imidazo[4,5-c]quinolin-2-one] | 181
